The values that follow come from ChEMBL document CHEMBL6096636 (Bioorg Med Chem, 2024).

Data set [1] in a line: Half-life in female Balb/c mouse at 5 mg/kg, ip measured after 24 hrs by LC-MS/MS analysis. The data set is classed as ADME, organism-based. The conditions noted are these: in vivo.
A short description of data set [2]: Metabolic stability in mouse liver microsomes assessed as clearance measured upto 45 mins in presence of NADPH by LC-MS/MS analysis. The conditions noted are these: read-out: CLH. The data set is classed as ADME, Microsome. (In general: Liver microsomes are a subcellular fraction often used to study metabolism.)
Data set [3] can be described thus: Selectivity index, ratio of IC50 for human HepG2 cells to IC50 for erythrocytic stage of Plasmodium falciparum 3D7. The conditions noted are these: read-out: Ratio IC50. The data set is classed as toxicity, cell-based.
Data set [4] deals with Plasmodium falciparum. Nature of the data set: microbe, parasite or virus in culture. The conditions noted are these: 72 h.
Description: Antimalarial activity against quinine and chloroquine resistant Plasmodium falciparum clinical isolate C2A assessed as inhibition of growth incubated for 72 hrs by SYBR green I based assay
Data set [5] deals with Plasmodium falciparum. Nature of the data set: microbe, parasite or virus in culture. The conditions noted are these: 72 h. The source holds these as a separate data set.
Description: Antimalarial activity against chloroquine resistant Plasmodium falciparum clinical isolate GB4 assessed as inhibition of growth incubated for 72 hrs by SYBR green I based assay
Data set [6] can be described thus: Cmax in female Balb/c mouse at 5 mg/kg, ip measured after 24 hrs by LC-MS/MS analysis. The conditions noted are these: in vivo. The data set is classed as ADME, organism-based.
For data set [7], the target named is T1, NAD-dependent protein deacetylase sirtuin-2 (Homo sapiens, UniProt Q8IXJ6).
T1 sequence (Q8IXJ6 whole entry): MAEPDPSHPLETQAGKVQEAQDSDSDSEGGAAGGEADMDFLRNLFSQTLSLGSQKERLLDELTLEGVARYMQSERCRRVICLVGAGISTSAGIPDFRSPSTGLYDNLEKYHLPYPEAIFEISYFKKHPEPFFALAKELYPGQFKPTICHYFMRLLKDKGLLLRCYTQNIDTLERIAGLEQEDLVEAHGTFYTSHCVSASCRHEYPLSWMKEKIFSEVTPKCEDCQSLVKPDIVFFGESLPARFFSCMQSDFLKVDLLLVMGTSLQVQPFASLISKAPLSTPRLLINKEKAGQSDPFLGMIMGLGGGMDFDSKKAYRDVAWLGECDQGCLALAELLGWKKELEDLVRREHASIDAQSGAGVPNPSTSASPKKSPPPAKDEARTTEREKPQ
Nature of the data set: Inhibition of recombinant human SIRT2 using Ac-peptide as substrate preincubated for 15 mins followed by substrate addition for 240 mins and measured after 120 mins of trypsin addition.

In data set [8] the target is Histone deacetylase 3 (Homo sapiens, UniProt O15379). Put plainly: Inhibition of recombinant human HDAC3 using Ac-peptide as substrate preincubated for 15 mins followed by substrate addition and measured after 60 mins.
Data set [9] can be described thus: Cytotoxicity against human HepG2 cells assessed as inhibition of cell growth incubated for 72 hrs by CCK8 assay. It counts as toxicity, cell-based. (In general: Tetrazolium dyes change colour on reduction, which living cells bring about.)

Where only a bound is given, the exact number is not on record here.

Chain of Histone deacetylase 3 (O15379 whole entry): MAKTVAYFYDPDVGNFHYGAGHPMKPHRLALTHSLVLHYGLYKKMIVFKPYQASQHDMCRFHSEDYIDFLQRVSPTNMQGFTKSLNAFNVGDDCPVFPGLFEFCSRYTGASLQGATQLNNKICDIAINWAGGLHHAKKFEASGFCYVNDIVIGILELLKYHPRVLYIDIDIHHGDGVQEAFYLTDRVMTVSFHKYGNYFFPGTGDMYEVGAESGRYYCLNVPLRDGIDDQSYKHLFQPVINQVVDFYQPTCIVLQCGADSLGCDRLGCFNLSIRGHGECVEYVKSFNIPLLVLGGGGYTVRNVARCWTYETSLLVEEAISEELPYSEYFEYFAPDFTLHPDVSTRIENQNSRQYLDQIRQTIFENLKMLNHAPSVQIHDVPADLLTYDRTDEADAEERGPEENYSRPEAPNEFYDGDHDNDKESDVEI

For orientation: half-life means the time in which the quantity being followed falls by half. For orientation: IC50 means the point on the concentration scale where inhibition reaches its midpoint. In general, Cmax refers to the peak of the concentration-time curve. In turn, `Cc1ccc2c(CN[C@H]3CC[C@@H](Nc4ncc(C(=O)NO)cn4)CC3)cn(C)c2c1.Cl` showed a half-life in [1] of 1.9 h. In addition, in [2], the CLint scaled worked out at 140 mL/min/kg. In addition, the selectivity ratio in data set [3] came to 469. Moreover, the IC50 was 0.0247 µM in data set [4], 0.0295 µM in data set [5], more than 10 µM in data set [7] and 0.023 µM in data set [8]. In addition, the Cmax in data set [6] stood at 803 ng/mL. Also, the IC50 at 72 h in data set [9] amounted to 5.29 µM.
